Key:
[1] = Single-injection body weight gain in wild-type mice; assay type: in vivo; details: single 25 mg/kg subcutaneous injection, after 4 days, vs vehicle
Procedure: To investigate the target engagement of exemplary ActRIIB-ECD polypeptide constructs in vivo, mice (n=6/group) were injected with given agents (25 mg/kg, subcutaneous injection), and sacrificed after 4 days to assess body weight gain.

activin A = target: T1, activin A (Homo sapiens, UniProt P08476); test: Small-scale activin A ELISA with CHO supernatants; details: 1 μg/mL protein, 30 ng/mL activin A, loss of signal = binding
T1 sequence (P08476 311-426): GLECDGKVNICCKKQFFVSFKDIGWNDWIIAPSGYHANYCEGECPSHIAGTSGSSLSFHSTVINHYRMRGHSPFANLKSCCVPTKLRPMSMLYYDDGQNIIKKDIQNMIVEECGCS
Procedure: Small-scale testing of ActRIIB-ECD fusion proteins. Additional investigation of a series of exemplary agents was performed using proteins expressed in CHO cells. Briefly, DNA encoding the ActRIIB-ECD-Fc fusion constructs was transfected in cells seeded in 12-well plates in a final volume of 1 ml. After 7 days, the supernatant was harvested, clarified, and the amount of expressed protein in each well was quantified using standard methods. The potency of each agent for inhibition of activin A, BMP-9 and BMP-10 was determined in three separate assays.
The next day, the plate was washed three times with buffer (Biolegend #421601). […] Expressed proteins in the supernatants described above were diluted to 2 μg/mL in assay diluent (0.5% BSA, 0.05% tween-20 in PBS), mixed 1:1 with recombinant human activin A (R&D #338-AC, 60 ng/mL, diluted in assay diluent). Complexes were immediately added to the 96-well plate in technical duplicates and incubated for 1 h at RT (concentration of expressed protein and activin A on the plate were 1 μg/mL and 30 ng/mL, respectively). […] In this assay, a loss of signal indicates binding of the exemplary agent to activin A, which prevents activin A binding to the anti-activin A antibody on the plate. Results are expressed as a % of the signal obtained with wild-type ActRIIB-Fc (P75).

With “P1229: hActRIIB L33W, 14 aa linker, IgG1-DL Fc; SEQ ID 211” the body weight gain [1] was “apparent body weight gain that did not reach statistical significance” and the “activin A binding, ELISA signal relative to P75” value (activin A) was “potent activin A binding”.

Reference: patent US20260193317A1, “COMBINATION THERAPY WITH ACTRIIB RECEPTOR VARIANTS AND GLP-1 AGONISTS” (35PHARMA Inc., priority 2023, published 2026)
